# Where “and” joins values, the source holds several entries; their conditions need not be identical. Identical values can stand only once. Entries after “also recorded” stand apart in the source; their conditions may differ. Square brackets hold non-standard residues; d marks the D form. Peptide text beside a SMILES is read from it. Cya = N[CH](CS(=O)(=O)O)C(=O)O
# What was measured:
# ARPE-19 cells = assay: In vitro protection of RPE cells against hydrogen peroxide, Trypan blue exclusion cell count; assay type: cell-based; conditions: 8 hours post exposure
# Description: Hydrogen peroxide (H2O2), a physiological mediator of oxidative stress, is known to induce apoptosis in retinal pigment epithelial (RPE) cells.
# ARPE-19 cells were incubated in DMEM/F12 medium supplemented with 10% fetal bovine serum (FBS) and 50 μg/ml streptomycin and 50 μg/ml of penicillin at 37° C. in an atmosphere of 5% CO2.To induce differentiation, ARP-19 cells were cultured in a Laminin coated transwells for 2 weeks in the same medium supplemented with 1% FBS and antibiotics. The RPE cells were then isolated and aliquots of about 150 μl-200 μl of cell suspension were dispensed into the petri dishes containing control medium. The cells were then incubated at 37 degrees C. for 24 hours before use.
# Thereafter, the following four (4) separate neuronal cell dishes were prepared as shown below: • A) Control Retinal RPE cells; • B) Retinal RPE cells incubated with 1.0 mg/ml ALG-1001 (Luminate); • C) Retinal RPE cells incubated with 100 μM of Hydrogen Peroxide; and • D) Retinal RPE cells incubated with 1.0 mg/ml ALG-1001 (Luminate) for 24 hours before exposure to 100 μM of Hydrogen Peroxide.
# (§1) Eight (8) hours post exposure, the cell numbers were measured using Trypan blue exclusion assay in a Neubaur Chamber.
# Retinal Neuronal cells = assay: In vitro protection of retinal neuronal cells against Kainic acid, Trypan blue exclusion cell count; assay type: cell-based, CD1 mice; conditions: 8 hours post exposure
# Description: CD1 mice were euthanized by decapitation, eyes were rapidly enucleated into DMEM complement with antibiotic solution and the retina were isolated from the pigment epithelium.
# The isolated retina was incubated in Hank's medium containing 2.5 mg/ml papain and 0.1 mg/ml of cysteine for 15 minutes at 30° C. After rinsing the Hank's medium, supplemented with 1.9 mM of CaCl2), 0.6 mM of MgCl2 and 0.1 mg/ml of bovine serum albumin.
# The retina was mechanically dissociated, about 150 μl-200 μl of cell suspension was dispensed into the petri dish containing control medium. Bipolar cells were identified under a microscope by the cells morphology. The cells were incubated for 6 hours before use.
# Four (4) separate Neuronal cell dishes were prepared, as follows: A) Control Retinal Neuronal cells, B) Retinal Neuronal cells incubated with ALG-1001 (Luminate) 1.0 mg/ml, C) Retinal Neuronal cells incubated with […], D) Retinal Neuronal cells incubated with Luminate 1.0 mg/ml for 24 hours before exposure to 500 μM of Kainic acid.
# as §1
# Wister rat retina = assay: In vivo dose-related neurotoxic effects of intravitreal Kainic acid, retinal histopathology; set-up: species or system Wister rats; conditions: intravitreal 20 μl of 0.5, 5.0, 50.0 mM; 24 hours post treatment
# Description: The right eyes of 4 Wister rats were injected intravitreally with 20 μl of the four different solutions, as follows: A) BSS solution as control, B) 0.5 mM of Kainic acid, C) 5.0 mM of Kainic acid and D) 50.0 mM of Kainic acid.
# The rats were sacrificed 24 hours post treatment and the eyes were prepared for Histopathology examination.
# retinal Muller cells = assay: In vitro protection of retinal Muller cells against Kainic acid, Trypan blue exclusion cell count; assay type: cell-based, CD1 mice; conditions: 1.0 mg/ml for 24 hours before exposure to 500 μM Kainic acid (Plate D), 48 hours post exposure
# Description: CD1 mice were euthanized by decapitation, eyes were rapidly enucleated into DMEM complement with antibiotic solution and stored overnight at room temperature. Subsequently the intact globes were incubated in DMEM containing 0.1% trypsin and 70 U/ml collagenase at 37° C. for 60 minutes.
# The incubated materials were placed in a petri dish containing DMEM supplemented with 10% fetal bovine serum, and the retinas were removed without the RPE cells into small aggregates and seeded into 35 mm culture dishes. Medium was unchanged for 6 days and then replenished every 3-4 days. The cultures were maintained at 37° C. in a […]/95% O2 in a humidified incubator.
# When the cell outgrowth had attained semiconfluency, (80%) retinal aggregates were removed by pipetting the medium into the dish. This operation was repeated three (3) times until a purified flat cell population was obtained. After 24 hours, the cells were exposed to the experimental conditions.
# Four (4) separate Muller cell dishes were prepared, as follows: A) Control Muller cells; B) Muller cells incubated with ALG-1001 (Luminate) 1.0 mg/ml; C) Muller cells incubated with 500 μM of Kainic acid and D) Muller cells incubated with Luminate 1.0 mg/ml for 24 hours before exposure to 500 μM of Kainic acid. Forty Eight (48) hours post exposure, the cell numbers were measured using Trypan blue exclusion assay in a Neubaur Chamber.
# [1] = Human prospective open label study in Dry AMD, Best Corrected Visual Acuity; assay type: in vivo; conditions: individual Dry AMD patient; single intravitreal injection 1.0 mg/50 μL
# Description: To determine if a single Luminate intravitreal injection of 1.0 mg/50 μL has any effect on improving Best Corrected Visual Acuity (BCVA) of Dry AMD subjects with moderate to moderately sever Dry AMD. This is a prospective interventional, open label, IRB approved human clinical proof of concept study conducted in 7 human subjects with moderate to moderately severe Dry AMD. Main inclusion criteria involved patients with Dry Macular Degeneration eyes with relatively intact photoreceptor and RPE layers in the central 1 mm of the macula by OCT. The baseline BCVA of the subjects was between 20/30 and 20/400 with no evidence of sub-retinal fluid or CNV and no history of Anti-VEGF treatment. All recruited patients underwent a baseline single intravitreal injection of Luminate 1.0 mg/50 μL and were monitored monthly, in addition central macular thickness, OCT, digital color photographs and pre and post treatment BCVA were obtained.
# retinal ganglion cells = assay: Ocular neuroprotection in vivo, rat model of elevated intraocular pressure (optic nerve ligation), ganglion cell counts; set-up: species or system Wister rats
# Description: Healthy Wister rats (n=8) ten (10) weeks of age were kept in a vivarium maintained at a constant temperature of 26° C., and a constant light-dark cycle (14 hours and 10 hours respectively) with food available ad libitum. The rats were randomly divided into a Luminate treatment group of five (5) animals (Group A) and a Basic Salt Solution (BSS-control) treatment group of three (3) animals (Group B).
# The animals of Group A each received a single intravitreal injection of 1.28 mg/20 μL of Luminate in the right eye. The animals of Group B each received a single intravitreal injection of 20 μL of balanced salt solution (BSS). The left eyes of all animals in Groups A and B were not injected and were used as untreated controls. The intravitreal injections were administered 2 mm posterior to the limbus in the supronasal quadrant using a 30-gauge needle attached to a 1.0 cc syringe. Care was taken to avoid damage to the lens or retina.
# Twenty-four (24) hours after administration of the injections the rats were anesthetized by intraperitoneal injection of 3.0 mL/kg of a mixture of ketamine Hydrochloride (2.5 mg/mL), diazepam (2.0 mg/mL) and atropine (0.1 mg/mL). The eyes were then subjected to peritoneal conjunctival detachment of the lateral rectus muscle to expose the optic nerve. The optic nerve was then ligated with silk suture for a period of 60 minutes during which the absence of blood flow in the retina of each ligated eye was verified by inspection using a Plano contact lens. The ligatures were removed after 60 minutes, and restoration of blood flow to the retina was verified in each previously-ligated eye using the Plano contact lens.
# The eyes were then enucleated and fixed for histopathological analysis. Specimens of the retina and optic nerve from each eye were dehydrated and embedded in paraffin. Horizontal sections 4 microns thick were cut and stained with hematoxylin and eosin. Under light microscopy, ganglion cell counts were counted in axial sections of the retina of each eye from ora serrata through the optic nerve. Also, in each section, the number of ganglion cells per millimeter through the total length of the retina was calculated digitally, using a measuring slide calibrated for this purpose.
# Measurement of the inner plexiform layer was performed by observing the slides at a magnification of 40× no more than 1 mm from the optic nerve.
# The results were subjected to statistical analysis. The results for each group were expressed as mean±standard deviation and the statistical significance between the results of the groups was evaluated by 2 way ANOVA as well as the Mann-Whitney U test. Probabilities of <0.05 were deemed to be significant.
smiles,measurement,setting,value
"OO [Hydrogen Peroxide, Hydrogen peroxide, reference compound]","RPE cell count, % of the control cell count",ARPE-19 cells; 100 μM Hydrogen Peroxide alone (Plate C),78%
"C=C(C)[C@H]1CN[C@H](C(=O)O)[C@H]1CC(=O)O [Kainic acid, reference compound]","neuronal cell count, % compared to Control",Retinal Neuronal cells; 100 μM Kainic acid only (Plate C),58%
same,retinal degeneration by histopathology,Wister rat retina,dose-related retinal neurotoxisity
"CC(O)C(NC(=O)C(CS(=O)(=O)O)NC(=O)CNC(=O)C(CCCNC(=N)N)NC(=O)CN)C(=O)N1CCCC1C(=O)O (centres unmarked) [Luminate, Glycinyl-Arginyl-Glycinyl-Cysteic-Threonyl-Proline] (H-GRG[Cya]TP-OH; configuration not given here)",Muller cell count compared with other plates,retinal Muller cells,higher Muller cell count than any of the other plates
same,"neuronal cell count, % of Control",Retinal Neuronal cells; 1.0 mg/ml for 24 hours before exposure to 500 μM Kainic acid (Plate D),80%
same,BCVA 3 Months Post Treatment,[1],1.0 log Mar (2×) and 1.3 log Mar and 0.20 log Mar and 0.3 log Mar and 0.6 log Mar
same,BCVA 3 Months Post Treatment (Snellen),[1],20/200 (2×) and 20/400 and 20/32 and 20/40 and 20/80
same,BCVA letters gained 3 Months Post Treatment vs baseline,[1],up to 20 letters; also recorded: Gained 15 letters; also recorded: Gained no letters; also recorded: Gained 10 letters; also recorded: Gained 20 letters
same,"RPE cell count, % of the control cell count",ARPE-19 cells; 1.0 mg/ml for 24 hours before exposure to 100 μM Hydrogen Peroxide (Plate D),90%
same,Difference between medians: Actual (CONTROLS vs. CASES),"retinal ganglion cells; ganglion cells per field, BSS controls minus treated",−9.000
same,Difference between medians: Hodges-Lehmann (CONTROLS vs. CASES),"retinal ganglion cells; ganglion cells per field, 95.05% CI −13.00 to −6.000",−10.00
same,neuroprotective effect in rat model of elevated IOP,"retinal ganglion cells; intravitreal administration, p<0.0001 vs BSS (ANOVA, Mann-Whitney)",significant neuroprotective effects
same,"Median of column A (ganglion cells per field, CASES)","retinal ganglion cells; n = 54 fields, Mann-Whitney vs BSS controls P<0.0001","18.00, n = 54"
same,SUM of ganglion cells over all fields,"retinal ganglion cells; per treated eye (case), intravitreal 1.28 mg/20 μL 24 h before 60 min optic nerve ligation",234 and 165 and 259 and 218 and 175
